3 compounds from patent US6040341A, “Compounds and their compositions having anti-inflammatory and anti-thrombotic activities” (Nicox S.A., priority 1995, dated 2000) can be followed below.

Data set [1] has as its system human piastrines stimulated by arachidonic acid. Kind of data set: Anti-aggregating piastrinic activity, aggregation induced by arachidonic acid. The data set is classed as cell-based. The note with it: Platelet; for activity at 100 µM / activity at 10 µM: read-out: Piastrinic aggregation (%) induced by arachidonic acid. As to the method: (§1) For the in vitro tests (piastrinic tests) the nitroderivatives, 1 mmol, were dissolved in dimethylsulfoxide and then diluted according to the concentrations listed in the Table.
(§2) Aspirin ASA 30 mmols was dissolved in a mixture of etanol:H2 O in the range 1:10 by volume and then diluted according to the concentrations listed in the Table.

Data set [2] deals with human piastrines stimulated by trombin. The data set is described as follows: Anti-aggregating piastrinic activity, aggregation induced by trombin. Particulars: for activity at 1000 µM / activity at 100 µM / activity at 10 µM: read-out: Piastrinic aggregation (%) induced by trombin. In kind it is cell-based. How it is done: as §1, §2
The target in a further data set is T1, cyclooxygenases (Homo sapiens, UniProt P23219).
T1 construct: endogenous in cells; host or cells: human platelets
T1 sequence (P23219 24-599): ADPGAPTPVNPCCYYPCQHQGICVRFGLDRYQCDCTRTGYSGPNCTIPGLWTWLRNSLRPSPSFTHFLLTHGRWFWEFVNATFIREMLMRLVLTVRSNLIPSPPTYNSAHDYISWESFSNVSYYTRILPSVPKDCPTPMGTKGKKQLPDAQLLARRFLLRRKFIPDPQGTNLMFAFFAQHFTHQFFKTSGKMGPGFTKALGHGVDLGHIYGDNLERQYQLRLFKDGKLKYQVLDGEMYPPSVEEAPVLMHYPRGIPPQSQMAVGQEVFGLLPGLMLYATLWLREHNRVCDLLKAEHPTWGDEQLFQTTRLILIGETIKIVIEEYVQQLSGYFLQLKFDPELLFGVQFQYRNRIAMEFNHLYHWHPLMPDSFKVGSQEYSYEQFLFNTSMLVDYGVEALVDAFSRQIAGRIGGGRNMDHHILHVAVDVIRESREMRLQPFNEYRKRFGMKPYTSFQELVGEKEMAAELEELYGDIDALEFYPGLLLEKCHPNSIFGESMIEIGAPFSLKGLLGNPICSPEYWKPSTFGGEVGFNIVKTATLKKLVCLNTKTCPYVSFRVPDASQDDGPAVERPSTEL
Kind of data set: COX inhibition in human piastrines (Tromboxan B2 level). The data set is classed as cell-based. Particulars: for COX inhibition (%): 5.10^-5 M; for COX inhibition (%) / inhibition at 100 µM / inhibition at 10 µM: % referred to controls (adding of the aggregating substance only); for inhibition at 100 µM: 10^-4 M; for inhibition at 10 µM: 10^-5 M. How it is done: as §1, §2
The inhibition activity of the cyclooxygenases was determined in human piastrines according to the method described by Patrono et al (Thrombosis Res. 17, 317, 1980). The enzimatic activity was expressed as level of Tromboxan B2 (TX B2) and measured in ng/ml.

In data set [3] the test system is intestinal gastric mucose. The data set is described as follows: Gastric tolerability, oral, in the rat. The data set is classed as in vivo. Particulars: for Gastric tolerance: in vivo; for Gastric damage: oral. As to the method: In the in vivo studies (for example toxicity) the products obtained above were administered in form of suspension in carboxymethylcellulose 1-2% by weight.
The gastric tolerability was evaluated through oral subministration in the rat measuring the seriousness of the gastropathie induced according to the criterium indicated by Wallace et al. (Am. J. Physiol. 259, G642, 1990).

Another data set deals with piastrinic adhesion. Kind of data set: Piastrinic adhesion. The data set is classed as cell-based. Particulars: from 10^-5 to 10^-4 M. As to the method: as §1, §2
The inhibition activity of the piastrinic adhesion was evaluated according to the method described by Bellavite et al. (Anal. Biochem. 216, 444, 1994).

The test system of data set [4] is calcium concentration inside the piastrine. Kind of data set: Intracellular piastrinic calcium. In kind it is cell-based. Particulars: from 10^-5 to 10^-4 M. As to the method: as §1, §2
The effect of the compounds of the invention or comparison compounds on the calcium concentration inside the piastrine was measured according to the method of Pollock et al. (Biochem. J. 235, 869, 1986).

Where [5] appears, read: 10^-4 M, % referred to controls (adding of the aggregating substance only).
[6] abbreviates: 10^-5 M, % referred to controls (adding of the aggregating substance only).
The mark [7] stands for this setting: Homo sapiens, Platelet, 10^-4 M, % referred to controls (adding of the aggregating substance only).

The structures appear in SMILES notation. Where two headings read alike, the source gives them in different places.

For the compound `CC(=O)Oc1ccccc1C(=O)OCCCCO[N+](=O)[O-]` [ANBE, 2-acetoxy-benzoate of (4-nitroxy)butyl], the activity at 1000 µM was 20% in data set [1] (10^-3 M, % referred to controls (adding of the aggregating substance only)) and 50% in data set [2] (Homo sapiens, Platelet, 10^-3 M, % referred to controls (adding of the aggregating substance only)). The values for the activity at 100 µM in data set [1] (setting [5]) and in data set [2] (setting [7]) were 50% and 60%, respectively. In addition, the activity at 10 µM in data set [1] (setting [6]) was determined as 100%. The “COX inhibition (%)” value at cyclooxygenases was 70%. At cyclooxygenases, this compound came in with an inhibition at 100 µM of 30%. In addition, at 10 µM the inhibition against cyclooxygenases was 80%. Besides, in data set [3], the Gastric tolerance result is on record as “very well tolerated in the gastric mucose”. Besides, the Gastric damage result in data set [3] (250-500 mg/Kg) was “did not produce relevant damages”.

As for `CC(=O)Oc1ccccc1C(=O)Oc1cccc(CO[N+](=O)[O-])c1` [ANMPE, 2-acetoxy-benzoate of (3-nitroxymetyhyl)fenyl], the activity at 50 µM in data set [1] (5.10^-5 M, % referred to controls (adding of the aggregating substance only)) turned out to be 10%; in data set [2] (Homo sapiens, Platelet, 5.10^-5 M, % referred to controls (adding of the aggregating substance only)), 40%. In addition, the activity at 100 µM in data set [1] (setting [5]) and in data set [2] (setting [7]) was 0% in each case. Besides, the activity at 10 µM in data set [1] (setting [6]) was 60%; in data set [2] (Homo sapiens, Platelet, 10^-5 M, % referred to controls (adding of the aggregating substance only)) it was 70%. Besides, in data set [2] (versus ASA and ANBE), the “Inhibition of piastrinic aggregation induced by trombin, comparison in words” value was “values surprisingly higher both with respect to ANBE and ASA”. The “COX inhibition (%)” value at cyclooxygenases stood at 2%. The compound further came in with an inhibition at 10 µM against cyclooxygenases of 5%. For the same compound, the “COX inhibition, comparison in words” value at cyclooxygenases (versus ASA and ANBE) is reported as “activities similar to ASA, but well higher with respect to ANBE”. Also, in data set [3], the Gastric tolerance result was “very well tolerated in the gastric mucose”. The Gastric damage entry in data set [3] (250-500 mg/Kg) is recorded as “did not produce relevant damages”. In addition, in the data set with piastrinic adhesion, the “Inhibition of piastrinic adhesion” value is “efficient in inhibiting significantly and in a dose-dependent way”. Moreover, the “Inhibition of intracellular piastrinic calcium” value in data set [4] is “efficient in inhibiting significantly and in a dose-dependent way”.

As to `CC(=O)Oc1ccccc1C(=O)O` [ASA, acetylsalicilic acid], in data set [1], the activity at 10 µM is 40% and the activity at 100 µM turned out to be 0%. In addition, in data set [2] (Homo sapiens, Platelet), the activity at 10 µM was found to be 100%, the activity at 100 µM was found to be 100% and the activity at 1000 µM turned out to be 80%. On cyclooxygenases, the “COX inhibition (%)” value is recorded as 3% and the inhibition at 100 µM stood at 1%. Also, the Gastric damage entry in data set [3] (50-100 mg/Kg) was “severe damages”.
